This is an account of results in article PMC11979273, “A phase I study to evaluate the safety, tolerability, and pharmacokinetics of HEC113995PA·H2O, a novel dual-acting serotonergic antidepressant, in healthy subjects” (Frontiers in Pharmacology, 2025).

Experiment [1] relates to rats. Put plainly: Behavioral despair models, rats. Conditions: single, multiple, and chronic administrations, unpublished data. The format is in vivo.
Experiment [2] has as its target T1, 5-HT1A receptor (Homo sapiens, UniProt P08908).
T1 sequence (P08908 1-422): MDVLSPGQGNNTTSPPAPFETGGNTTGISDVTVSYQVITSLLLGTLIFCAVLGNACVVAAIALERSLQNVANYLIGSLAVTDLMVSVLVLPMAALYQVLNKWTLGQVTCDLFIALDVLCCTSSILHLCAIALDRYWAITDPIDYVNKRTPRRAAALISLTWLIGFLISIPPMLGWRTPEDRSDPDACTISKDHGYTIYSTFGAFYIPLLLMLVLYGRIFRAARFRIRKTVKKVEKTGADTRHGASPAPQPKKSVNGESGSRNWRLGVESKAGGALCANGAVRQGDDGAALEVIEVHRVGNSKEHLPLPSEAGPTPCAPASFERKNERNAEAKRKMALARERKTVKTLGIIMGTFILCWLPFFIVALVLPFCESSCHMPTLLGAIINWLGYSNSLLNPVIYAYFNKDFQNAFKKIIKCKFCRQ
Put plainly: 5-HT1A receptor agonism (EC50, EMAX). Conditions: in vitro; unpublished data. The format is biochemical.

In the case of `Cc1nc(-c2cnc(N3CCN(CCCc4c[nH]c5ccc(C#N)cc45)CC3)nc2)sc1C(N)=O` [HEC113995PA·H2O], the duration of immobility result in experiment [1] was “significantly reduce”. For the same compound, in experiment [2], the “5-HT1A receptor activity relative to Vortioxetine” value was “comparable activity” and the “activity in agonizing 5-HT1A receptor relative to HEC61139 (Vilazodone)” value was “slightly weaker activity”.
